Several values for one entry are separate records, joined by “and”; a condition that tells them apart may be missing. Identical values can stand only once. Numbers after ± are expanded uncertainties.
Tests used:
[1] = molar enthalpy of vaporization or sublimation; details: 298.15 K, vacuum sublimation
[2] = Crystal, Calculated from knudsen effusion weight loss

Row | SMILES | molar enthalpy ([1]; Crystal) | molar enthalpy ([1]; Liquid) | vapor or sublimation pressure ([2]; 293.25 K) | vapor or sublimation pressure ([2]; 295.17 K) | vapor or sublimation pressure ([2]; 297.09 K) | vapor or sublimation pressure ([2]; 299.21 K) | vapor or sublimation pressure ([2]; 301.16 K) | vapor or sublimation pressure ([2]; 303.08 K) | vapor or sublimation pressure ([2]; 305.19 K) | vapor or sublimation pressure ([2]; 307.16 K) | vapor or sublimation pressure ([2]; 309.09 K)
1 | CC(=O)c1ccc(Cl)cc1Cl [2',4'-dichloroacetophenone] | 63.6 ± 2.8 kJ/mol |  |  |  |  |  |  |  |  |  | 
2 | CC(=O)c1cc(Cl)ccc1Cl [2',5'-dichloroacetophenone] |  | 66.3 ± 3 kJ/mol |  |  |  |  |  |  |  |  | 
3 | CC(=O)c1ccc(Cl)c(Cl)c1 [3',4'-dichloroacetophenone] | 90.8 ± 3.2 kJ/mol |  | 0.0001703 ± 8.5e-06 kPa and 0.0001647 ± 8.3e-06 kPa and 0.0001655 ± 8.3e-06 kPa | 0.0002238 ± 1.1e-05 kPa and 0.0002145 ± 1.1e-05 kPa and 0.000213 ± 1.1e-05 kPa | 0.0002738 ± 1.4e-05 kPa and 0.0002832 ± 1.4e-05 kPa and 0.0002774 ± 1.4e-05 kPa | 0.0003484 ± 1.7e-05 kPa and 0.0003522 ± 1.8e-05 kPa and 0.0003546 ± 1.8e-05 kPa | 0.0004547 ± 2.3e-05 kPa and 0.0004516 ± 2.3e-05 kPa and 0.0004492 ± 2.3e-05 kPa | 0.0005694 ± 2.9e-05 kPa and 0.0005819 ± 2.9e-05 kPa and 0.0005785 ± 2.9e-05 kPa | 0.0007368 ± 3.7e-05 kPa and 0.0007202 ± 3.6e-05 kPa and 0.0007224 ± 3.6e-05 kPa | 0.000944 ± 4.7e-05 kPa and 0.0009302 ± 4.7e-05 kPa and 0.0009113 ± 4.6e-05 kPa | 0.001174 ± 0.00012 kPa and 0.001186 ± 0.00012 kPa and 0.001176 ± 0.00012 kPa

Reference: the NIST ThermoML archive (doi:10.1016/j.jct.2010.09.005)
